Measurements published in patent US8198273B2, “Compounds and methods for kinase modulation, and indications therefor” (Plexxikon Inc., priority 2009, dated 2012).

Assays:
c-Raf-1 = c-Raf-1 (Homo sapiens, UniProt P04049); test: c-Raf-1 biochemical kinase inhibition (AlphaScreen, biotin-MEK1 substrate); details: 100 μM ATP
Method: Compounds to be tested are diluted in dimethyl sulfoxide to a concentration of 0.1 mM. These are serially diluted 15 μL into 30 μL of dimethyl sulfoxide seven times in 96 well plates for a total of 8 dilution points, and for each dilution point 1 μL is added to a well of an assay plate. […] The reaction is started with addition of 10 μL of 200 μM ATP (i.e. final 100 μM ATP). […] The plates are incubated for 3 hours at room temperature and read on Envision reader (Perkin Elmer). […] The signal vs. compound concentration is used to determine the IC50.

[1] = Relative solubility by turbidity in aqueous buffers of varying pH; format: physicochemical; details: for turbidity threshold (L, M, H) 7.4: HEPES pH 7.4; for turbidity threshold (L, M, H) 4.5: SIF pH 4.5; for turbidity threshold (L, M, H) 6.8: SIF pH 6.8; for turbidity threshold (L, M, H) 1.4: buffer pH 1.4 (SGF)
In short: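 Turbidity endpoint: concentration where optical density at 490, 535 and 650 nm exceeds 0.01, three-wavelength average used. Buffers at pH 1.5, 4.5, 6.8 and 7.4; DMSO serial dilutions of 25 mM stock spiked 1 μL into 99 μL buffer. Low <31.3, moderate 31.3–250, high >250 μM.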

CYP2D6 = CYP2D6 (Homo sapiens, UniProt P10635); test: CYP2D6 inhibition (fluorescent substrate); format: in vitro ADME; details: CYP2D6, AMMC substrate; read-out: Cyp IC50 2D6
In short: (§1)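 First, 100 mM DMSO stocks are diluted into acetonitrile, then twofold through co-factor mix for 10 points. Next, mixtures are preincubated 10 min at 37 °C.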

CYP2C19 = CYP2C19 (Homo sapiens, UniProt P33261); test: CYP2C19 inhibition (fluorescent substrate); format: in vitro ADME; details: CYP2C19, CEC substrate; read-out: Cyp IC50 2C19
In short: as §1

B-Raf V600E = B-Raf V600E (Homo sapiens, UniProt P15056, V600E); test: B-Raf V600E biochemical kinase inhibition (AlphaScreen, biotin-MEK1 substrate); details: 100 μM ATP
In short: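 Serial 1:3 dilutions of compound (0.1 mM DMSO stock, eight points) were added first, then ATP to start the reaction at 100 μM final.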

c-Raf-1, sequence (P04049 whole entry): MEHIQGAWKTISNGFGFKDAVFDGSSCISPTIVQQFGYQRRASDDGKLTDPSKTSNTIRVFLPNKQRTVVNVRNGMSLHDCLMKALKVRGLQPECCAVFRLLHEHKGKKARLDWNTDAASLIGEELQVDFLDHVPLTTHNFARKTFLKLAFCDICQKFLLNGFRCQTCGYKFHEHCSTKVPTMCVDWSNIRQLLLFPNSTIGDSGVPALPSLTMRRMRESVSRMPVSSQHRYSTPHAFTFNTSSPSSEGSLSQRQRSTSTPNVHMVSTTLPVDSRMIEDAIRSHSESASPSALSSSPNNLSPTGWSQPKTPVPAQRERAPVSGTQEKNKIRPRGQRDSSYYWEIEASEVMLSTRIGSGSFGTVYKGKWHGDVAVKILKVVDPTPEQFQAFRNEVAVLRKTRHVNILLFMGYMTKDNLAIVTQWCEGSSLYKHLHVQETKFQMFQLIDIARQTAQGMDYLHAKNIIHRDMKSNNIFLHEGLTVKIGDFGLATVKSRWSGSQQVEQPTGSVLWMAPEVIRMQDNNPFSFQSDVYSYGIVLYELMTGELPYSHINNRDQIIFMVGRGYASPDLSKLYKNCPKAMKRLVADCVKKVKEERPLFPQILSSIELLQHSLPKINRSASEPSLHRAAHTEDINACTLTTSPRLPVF
B-Raf V600E, sequence (P15056 whole entry V600E): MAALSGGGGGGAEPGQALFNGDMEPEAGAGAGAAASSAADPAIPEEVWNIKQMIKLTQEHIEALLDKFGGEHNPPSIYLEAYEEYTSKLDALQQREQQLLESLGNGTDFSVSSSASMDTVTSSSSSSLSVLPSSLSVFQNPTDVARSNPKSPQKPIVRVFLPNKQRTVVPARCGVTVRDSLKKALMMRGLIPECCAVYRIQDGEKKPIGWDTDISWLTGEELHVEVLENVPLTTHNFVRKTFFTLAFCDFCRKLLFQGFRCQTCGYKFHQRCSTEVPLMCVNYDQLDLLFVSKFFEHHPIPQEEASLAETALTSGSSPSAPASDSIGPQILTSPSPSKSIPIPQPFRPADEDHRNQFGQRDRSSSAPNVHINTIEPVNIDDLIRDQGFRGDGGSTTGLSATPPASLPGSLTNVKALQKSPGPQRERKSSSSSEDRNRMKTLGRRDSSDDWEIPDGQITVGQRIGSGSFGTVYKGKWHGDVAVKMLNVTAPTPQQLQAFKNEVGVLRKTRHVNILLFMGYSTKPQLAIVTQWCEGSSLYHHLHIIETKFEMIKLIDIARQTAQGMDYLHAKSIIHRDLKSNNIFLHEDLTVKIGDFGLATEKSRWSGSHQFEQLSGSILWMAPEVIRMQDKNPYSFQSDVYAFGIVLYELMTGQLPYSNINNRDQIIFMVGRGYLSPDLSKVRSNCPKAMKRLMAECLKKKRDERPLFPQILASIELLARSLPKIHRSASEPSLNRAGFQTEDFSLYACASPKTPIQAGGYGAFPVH
CYP2D6, sequence (P10635 whole entry): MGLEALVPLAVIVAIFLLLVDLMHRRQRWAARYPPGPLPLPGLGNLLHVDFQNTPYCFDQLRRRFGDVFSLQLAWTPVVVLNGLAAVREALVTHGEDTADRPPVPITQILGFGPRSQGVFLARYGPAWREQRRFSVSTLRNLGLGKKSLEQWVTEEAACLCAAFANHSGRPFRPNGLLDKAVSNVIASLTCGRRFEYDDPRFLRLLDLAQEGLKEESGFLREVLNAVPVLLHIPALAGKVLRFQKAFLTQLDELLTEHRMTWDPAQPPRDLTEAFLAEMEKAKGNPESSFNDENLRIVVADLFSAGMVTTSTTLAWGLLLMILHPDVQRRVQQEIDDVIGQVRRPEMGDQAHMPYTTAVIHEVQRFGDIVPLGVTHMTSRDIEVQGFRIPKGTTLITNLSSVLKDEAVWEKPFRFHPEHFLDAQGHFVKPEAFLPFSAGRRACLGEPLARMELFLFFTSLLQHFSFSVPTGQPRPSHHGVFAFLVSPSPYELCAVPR
CYP2C19, sequence (P33261 whole entry): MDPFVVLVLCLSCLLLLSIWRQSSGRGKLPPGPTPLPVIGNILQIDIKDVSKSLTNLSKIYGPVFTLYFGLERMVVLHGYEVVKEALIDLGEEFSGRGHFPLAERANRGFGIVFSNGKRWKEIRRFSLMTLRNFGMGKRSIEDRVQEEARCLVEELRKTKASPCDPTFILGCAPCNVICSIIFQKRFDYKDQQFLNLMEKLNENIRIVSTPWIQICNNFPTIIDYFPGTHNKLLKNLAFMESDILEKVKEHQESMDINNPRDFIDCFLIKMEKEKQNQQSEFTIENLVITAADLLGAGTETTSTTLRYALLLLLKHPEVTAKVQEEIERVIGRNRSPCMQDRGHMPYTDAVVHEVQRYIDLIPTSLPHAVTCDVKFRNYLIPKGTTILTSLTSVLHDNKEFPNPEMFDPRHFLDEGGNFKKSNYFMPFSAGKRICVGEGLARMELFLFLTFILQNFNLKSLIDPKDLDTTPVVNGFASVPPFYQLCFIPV

| IC50 (c-Raf-1) [µM] | IC50 (CYP2D6) [µM] | IC50 (CYP2C19) [µM] | IC50 (B-Raf V600E) [µM] | Compound | turbidity threshold (L, M, H) 7.4 [1] | turbidity threshold (L, M, H) 4.5 [1] | turbidity threshold (L, M, H) 6.8 [1] | turbidity threshold (L, M, H) 1.4 [1] |
| --- | --- | --- | --- | --- | --- | --- | --- | --- |
| < 0.01 | > 10 | 5 to 10 | < 0.01 | CCCS(=O)(=O)Nc1ccc(F)c(C(=O)c2c[nH]c3ncc(-c4cnc(C)nc4)cc23)c1F [P-2211, Propane-1-sulfonic acid {2,4-difluoro-3-[5-(2-methyl-pyrimidin-5-yl)-1H-pyrrolo[2,3-b]pyridine-3-carbonyl]-phenyl}-amide] | M (moderate solubility if the threshold concentration is 31.3 μM to 250 μM) | M (moderate solubility if the threshold concentration is 31.3 μM to 250 μM) | M (moderate solubility if the threshold concentration is 31.3 μM to 250 μM) | M (moderate solubility if the threshold concentration is 31.3 μM to 250 μM) |
| < 0.01 | > 10 | > 10 | < 0.1 | COc1ccnc2[nH]cc(C(=O)c3c(F)ccc(NS(=O)(=O)c4cccnc4)c3F)c12 [P-2073, Pyridine-3-sulfonic acid [2,4-difluoro-3-(4-methoxy-1H-pyrrolo[2,3-b]pyridine-3-carbonyl)-phenyl]-amide] |  |  |  |  |
| < 0.01 | > 10 | > 10 | < 0.01 | N#Cc1ccnc2[nH]cc(C(=O)c3c(F)ccc(NS(=O)(=O)c4cccnc4)c3F)c12 [P-2077, Pyridine-3-sulfonic acid [3-(4-cyano-1H-pyrrolo[2,3-b]pyridine-3-carbonyl)-2,4-difluoro-phenyl]-amide] |  |  |  |  |
| < 0.01 | > 10 | 5 to 10 | < 0.01 | CCCc1ccc(-c2cnc3[nH]cc(C(=O)c4c(F)ccc(NS(=O)(=O)CCC)c4F)c3c2)cn1 [P-2224, Propane-1-sulfonic acid {2,4-difluoro-3-[5-(6-propyl-pyridin-3-yl)-1H-pyrrolo[2,3-b]pyridine-3-carbonyl]-phenyl}-amide] |  |  |  |  |
| < 0.01 | > 10 | > 10 | < 0.01 | CCCS(=O)(=O)Nc1ccc(F)c(C(=O)c2c[nH]c3ncc(-c4cnc(OC)nc4OC)cc23)c1F [P-2199, Propane-1-sulfonic acid {3-[5-(2,4-dimethoxy-pyrimidin-5-yl)-1H-pyrrolo[2,3-b]pyridine-3-carbonyl]-2,4-difluoro-phenyl}-amide] |  |  |  |  |
| < 0.01 | > 10 | > 10 | < 0.01 | CCCS(=O)(=O)Nc1ccc(F)c(C(=O)c2c[nH]c3ncc(-c4cccc(S(C)(=O)=O)c4)cc23)c1F [P-2228, Propane-1-sulfonic acid {2,4-difluoro-3-[5-(3-methanesulfonyl-phenyl)-1H-pyrrolo[2,3-b]pyridine-3-carbonyl]-phenyl}-amide] |  |  |  |  |
| < 0.01 | > 10 | 5 to 10 | < 0.1 | CCCS(=O)(=O)Nc1ccc(F)c(C(=O)c2c[nH]c3ncc(-c4ccc(Cl)nc4)cc23)c1F [P-2154, Propane-1-sulfonic acid {3-[5-(6-chloro-pyridin-3-yl)-1H-pyrrolo[2,3-b]pyridine-3-carbonyl]-2,4-difluoro-phenyl}-amide] |  |  |  |  |
| < 0.01 | > 10 | 5 to 10 | < 0.01 | CCCS(=O)(=O)Nc1ccc(F)c(C(=O)c2c[nH]c3ncc(-c4ccc(N)nc4)cc23)c1F [P-2214, Propane-1-sulfonic acid {3-[5-(6-amino-pyridin-3-yl)-1H-pyrrolo[2,3-b]pyridine-3-carbonyl]-2,4-difluoro-phenyl}-amide] |  |  |  |  |
| < 0.01 | > 10 | 5 to 10 | < 0.01 | CCCS(=O)(=O)Nc1ccc(F)c(C(=O)c2c[nH]c3ncc(-c4ccc(S(=O)(=O)NC)cc4)cc23)c1F [P-2167, 4-{3-[2,6-Difluoro-3-(propane-1-sulfonylamino)-benzoyl]-1H-pyrrolo[2,3-b]pyridin-5-yl}-N-methyl-benzenesulfonamide] |  |  |  |  |
| < 0.1 | > 10 |  | < 0.1 | CCCS(=O)(=O)Nc1ccc(F)c(C(=O)c2c[nH]c3ncc(-c4ccc(S(=O)(=O)CC)cc4)cc23)c1F [P-2218, Propane-1-sulfonic acid {3-[5-(4-ethanesulfonyl-phenyl)-1H-pyrrolo[2,3-b]pyridine-3-carbonyl]-2,4-difluoro-phenyl}-amide] |  |  |  |  |

Second part, the molecule before the results:

| Compound | IC50 (c-Raf-1) [µM] | IC50 (CYP2D6) [µM] | IC50 (CYP2C19) [µM] | IC50 (B-Raf V600E) [µM] | turbidity threshold (L, M, H) 7.4 [1] | turbidity threshold (L, M, H) 4.5 [1] | turbidity threshold (L, M, H) 6.8 [1] | turbidity threshold (L, M, H) 1.4 [1] |
| --- | --- | --- | --- | --- | --- | --- | --- | --- |
| Cc1cnc2[nH]cc(C(=O)c3c(F)ccc(NS(=O)(=O)c4cccnc4)c3F)c2c1 [P-2069, Pyridine-3-sulfonic acid [2,4-difluoro-3-(5-methyl-1H-pyrrolo[2,3-b]pyridine-3-carbonyl)-phenyl]-amide] | < 0.01 | > 10 | > 10 | < 0.01 | H (high solubility if the threshold concentration is >250 μM) | M (moderate solubility if the threshold concentration is 31.3 μM to 250 μM) | M (moderate solubility if the threshold concentration is 31.3 μM to 250 μM) | H (high solubility if the threshold concentration is >250 μM) |
| N#Cc1ccnc2[nH]cc(C(=O)c3c(F)ccc(NS(=O)(=O)c4cc(F)ccc4F)c3F)c12 [P-2036, N-[3-(4-Cyano-1H-pyrrolo[2,3-b]pyridine-3-carbonyl)-2,4-difluoro-phenyl]-2,5-difluoro-benzenesulfonamide] | < 0.01 | > 10 | > 10 | < 0.01 |  |  |  |  |
| O=C(c1c(F)ccc(NS(=O)(=O)c2c(F)cccc2F)c1F)c1c[nH]c2nccc(Cl)c12 [P-2033, N-[3-(4-Chloro-1H-pyrrolo[2,3-b]pyridine-3-carbonyl)-2,4-difluoro-phenyl]-2,6-difluoro-benzenesulfonamide] | < 0.01 | > 10 | > 10 | < 0.01 |  |  |  |  |
| COc1ccnc2[nH]cc(C(=O)c3c(F)ccc(NS(=O)(=O)c4c(F)cccc4F)c3F)c12 [P-2031, N-[2,4-Difluoro-3-(4-methoxy-1H-pyrrolo[2,3-b]pyridine-3-carbonyl)-phenyl]-2,6-difluoro-benzenesulfonamide] | < 0.1 | > 10 | > 10 | < 0.1 |  |  |  |  |
| N#Cc1cnc2[nH]cc(C(=O)c3c(F)ccc(NS(=O)(=O)c4c(F)cccc4F)c3F)c2c1 [P-2029, N-[3-(5-Cyano-1H-pyrrolo[2,3-b]pyridine-3-carbonyl)-2,4-difluoro-phenyl]-2,6-difluoro-benzenesulfonamide] | < 0.01 | > 10 | > 10 | < 0.01 |  |  |  |  |
| N#Cc1cnc2[nH]cc(C(=O)c3c(F)ccc(NS(=O)(=O)c4cccnc4)c3F)c2c1 [P-2072, Pyridine-3-sulfonic acid [3-(5-cyano-1H-pyrrolo[2,3-b]pyridine-3-carbonyl)-2,4-difluoro-phenyl]-amide] | < 0.01 | > 10 | > 10 | < 0.01 |  |  |  |  |
| N#Cc1ccnc2[nH]cc(C(=O)c3c(F)ccc(NS(=O)(=O)c4c(F)cccc4F)c3F)c12 [P-2037, N-[3-(4-Cyano-1H-pyrrolo[2,3-b]pyridine-3-carbonyl)-2,4-difluoro-phenyl]-2,6-difluoro-benzenesulfonamide] | < 0.01 | > 10 | > 10 | < 0.01 |  |  |  |  |
| N#Cc1cnc2[nH]cc(C(=O)c3cccc(NS(=O)(=O)c4c(F)cccc4F)c3F)c2c1 [P-2054, N-[3-(5-Cyano-1H-pyrrolo[2,3-b]pyridine-3-carbonyl)-2-fluoro-phenyl]-2,6-difluoro-benzenesulfonamide] | < 0.1 | > 10 | > 10 | < 0.01 |  |  |  |  |
| N#Cc1ccnc2[nH]cc(C(=O)c3c(F)ccc(NS(=O)(=O)c4cccc(F)c4)c3F)c12 [P-2039, N-[3-(4-Cyano-1H-pyrrolo[2,3-b]pyridine-3-carbonyl)-2,4-difluoro-phenyl]-3-fluoro-benzenesulfonamide] | < 0.01 | > 10 | > 10 | < 0.01 |  |  |  |  |
| N#Cc1cnc2[nH]cc(C(=O)c3c(F)ccc(NS(=O)(=O)c4ccccc4F)c3F)c2c1 [P-2011, N-[3-(5-Cyano-1H-pyrrolo[2,3-b]pyridine-3-carbonyl)-2,4-difluoro-phenyl]-2-fluoro-benzenesulfonamide] |  | > 10 | > 10 | < 0.01 | M (moderate solubility if the threshold concentration is 31.3 μM to 250 μM) | M (moderate solubility if the threshold concentration is 31.3 μM to 250 μM) | M (moderate solubility if the threshold concentration is 31.3 μM to 250 μM) | M (moderate solubility if the threshold concentration is 31.3 μM to 250 μM) |
